Measured values as given in PubChem BioAssay (NCI).
Values joined by “and” are separate entries in the source; they are usually repeats but may differ in a detail not shown here. Equal entries are not always repeated.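 1) Cells in 96-well plates. 2) Compound, 48 h, 5 concentrations. 3) Linear interpolation between surrounding doses. 4) Unreached endpoint = highest concentration. Abbreviation: GI50, concentration required for 50% inhibition of growth. TGI: total growth inhibition.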

The compounds below were run on SF-539 CNS (assay: inhibition of tumour cell growth, NCI panel, 48 h).

Row | Structure (SMILES) | TGI [µM] | GI50 [µM]
1 | Cc1nc2c(nc1C)C(=O)c1ccccc1C2=O | 11.2 | –
2 | O[C@H]1[C@H]2c3cc4c(cc3CN3CCC(=C[C@@H]1O)[C@H]23)OCO4 | 5.74 | –
3 | O=[N+]([O-])c1cnc(Sc2ccncn2)s1 | 14.9 | 5.61
4 | O=C(Nc1ccc(I)cc1)c1cc([N+](=O)[O-])ccc1O | 80 | 11.4
5 | Cc1cc(=O)n2[nH]c(-c3ccc(C(C)(C)C)cc3)cc2n1 | > 100 | 9.01
6 | O=C(O)c1cc(C(=O)O)cc(N2C(=O)c3ccccc3C2=O)c1 | > 100 | –
7 | CNC(=O)c1ccccc1Nc1nc(Nc2ccc(N3CCOCC3)cc2OC)ncc1Cl | 7.68 | 1.29
8 | COc1c2ccoc2c(/C=C/C=O)c2oc(-c3ccccc3)cc(=O)c12 | 16.4 | 3.59
9 | O=C(CN1CCN(c2cc3c(cc2F)c(=O)c(C(=O)N/N=C/c2ccccc2O)cn3C2CC2)CC1)N/N=C\c1ccccc1O | > 64 | 0.829
10 | C=C(CNCCO)[C@@H]1CC[C@]2(CO)CC[C@]3(C)[C@H](CC[C@@H]4[C@@]5(C)CCC(N)C(C)(C)[C@@H]5CC[C@]43C)[C@@H]12 (stereo partly specified) | 3.21 | 1.75

Each compound was assayed on SNB-75 CNS (assay: inhibition of tumour cell growth, NCI panel, 48 h).

Row | Structure (SMILES) | GI50 | TGI [µM]
11 | CCCCCCCC(=O)SCC/C=C/[C@@H]1CC(=O)NCc2cccc(n2)C2=N[C@@](C)(CS2)C(=O)N[C@@H](C(C)C)C(=O)N1 | 0.223 µM | > 33.3
12 | C[C@@H](CS(C)(=O)=O)Nc1ncc2cc(Oc3ccc(F)cc3F)c(=O)n(C)c2n1 | > 25 µM | > 25
13 | COc1cc2c(c(OC)c1O)C(=O)C(OC)C(c1ccc(O)c(O)c1)O2 (stereo unspecified) | 0.0405 µM | > 79.3
14 | Cn1ccnc1C(=O)/C=C/c1ccc(CC(=O)Nc2ccc(Br)cc2)cc1 | 3.05 µM | > 16.7
15 | CCOC(=O)Nc1nc2ccc(OCC)cc2s1 | 22.7 µM | > 100
16 | COC(=O)[C@@H](C)C[C@H](Cc1ccc(F)cc1)NC(=O)c1csc([C@@H](C[C@H](C(C)C)N(C)C(=O)[C@@H](NC(=O)[C@H]2CCCCN2C)C(C)C)OC(C)=O)n1 | 0.000986 µM and 0.00522 µM | > 16.7
17 | COc1ccc2c(c1)C(=O)/C(=C/c1ccc(OCC(=O)Nc3nccs3)cc1)O2 | 0.629 µM | 9.38
18 | Cc1cnc(NC(=O)C(Cc2ccccc2)NC(=O)c2ccccc2)s1 (stereo unspecified) | 6.53 µM | 27.7
19 | CC(C)c1ccc(C(C)C(=O)N(CC2=C(C(C)c3ccccn3)c3ccccc3C2)C(C)C)cc1 (stereo unspecified) | 3.17 µM | > 100
20 | Cc1nc2c(nc1C)C(=O)c1ccccc1C2=O | – | 6.15
21 | O[C@H]1[C@H]2c3cc4c(cc3CN3CCC(=C[C@@H]1O)[C@H]23)OCO4 | – | 24.9
22 | O=[N+]([O-])c1cnc(Sc2ccncn2)s1 | 3.84 µM | 18.8
23 | O=C(Nc1ccc(I)cc1)c1cc([N+](=O)[O-])ccc1O | 8.89 µM | 67
24 | Cc1cc(=O)n2[nH]c(-c3ccc(C(C)(C)C)cc3)cc2n1 | 7.9 µM | 46.8
25 | O=C(O)c1cc(C(=O)O)cc(N2C(=O)c3ccccc3C2=O)c1 | – | > 100
26 | CNC(=O)c1ccccc1Nc1nc(Nc2ccc(N3CCOCC3)cc2OC)ncc1Cl | 0.766 µM | 5.44
27 | COc1c2ccoc2c(/C=C/C=O)c2oc(-c3ccccc3)cc(=O)c12 | 8.3 µM | 67.1
28 | O=C(CN1CCN(c2cc3c(cc2F)c(=O)c(C(=O)N/N=C/c2ccccc2O)cn3C2CC2)CC1)N/N=C\c1ccccc1O | 1.11 µM | > 100
29 | C=C(CNCCO)[C@@H]1CC[C@]2(CO)CC[C@]3(C)[C@H](CC[C@@H]4[C@@]5(C)CCC(N)C(C)(C)[C@@H]5CC[C@]43C)[C@@H]12 (stereo partly specified) | 1.4 µM | 3.93

Each compound was assayed on UACC-62 melanoma (assay: inhibition of tumour cell growth, NCI panel, 48 h).

Row | Structure (SMILES) | GI50 [µM] | TGI [µM]
30 | CCCCCCCC(=O)SCC/C=C/[C@@H]1CC(=O)NCc2cccc(n2)C2=N[C@@](C)(CS2)C(=O)N[C@@H](C(C)C)C(=O)N1 | 0.192 | 4.88
31 | C[C@@H](CS(C)(=O)=O)Nc1ncc2cc(Oc3ccc(F)cc3F)c(=O)n(C)c2n1 | > 25 | > 25
32 | COc1cc2c(c(OC)c1O)C(=O)C(OC)C(c1ccc(O)c(O)c1)O2 (stereo unspecified) | 0.345 | > 100
33 | Cn1ccnc1C(=O)/C=C/c1ccc(CC(=O)Nc2ccc(Br)cc2)cc1 | 2.8 | 5.73
34 | CCOC(=O)Nc1nc2ccc(OCC)cc2s1 | 13.4 | > 100
35 | COC(=O)[C@@H](C)C[C@H](Cc1ccc(F)cc1)NC(=O)c1csc([C@@H](C[C@H](C(C)C)N(C)C(=O)[C@@H](NC(=O)[C@H]2CCCCN2C)C(C)C)OC(C)=O)n1 | – | > 16.7
36 | COc1ccc2c(c1)C(=O)/C(=C/c1ccc(OCC(=O)Nc3nccs3)cc1)O2 | 9.71 | 23.2
37 | Cc1cnc(NC(=O)C(Cc2ccccc2)NC(=O)c2ccccc2)s1 (stereo unspecified) | 1.45 | 3.7
38 | CC(C)c1ccc(C(C)C(=O)N(CC2=C(C(C)c3ccccn3)c3ccccc3C2)C(C)C)cc1 (stereo unspecified) | 8.79 | 37.6
39 | Cc1nc2c(nc1C)C(=O)c1ccccc1C2=O | – | 2.42
40 | O[C@H]1[C@H]2c3cc4c(cc3CN3CCC(=C[C@@H]1O)[C@H]23)OCO4 | – | 7.95
41 | O=[N+]([O-])c1cnc(Sc2ccncn2)s1 | 6.12 | 16.9
42 | O=C(Nc1ccc(I)cc1)c1cc([N+](=O)[O-])ccc1O | 3.38 | 14.1
43 | Cc1cc(=O)n2[nH]c(-c3ccc(C(C)(C)C)cc3)cc2n1 | 3.83 | > 100
44 | O=C(O)c1cc(C(=O)O)cc(N2C(=O)c3ccccc3C2=O)c1 | – | > 100
45 | CNC(=O)c1ccccc1Nc1nc(Nc2ccc(N3CCOCC3)cc2OC)ncc1Cl | 0.239 | 2.73
46 | COc1c2ccoc2c(/C=C/C=O)c2oc(-c3ccccc3)cc(=O)c12 | 5.45 | 22.7
47 | O=C(CN1CCN(c2cc3c(cc2F)c(=O)c(C(=O)N/N=C/c2ccccc2O)cn3C2CC2)CC1)N/N=C\c1ccccc1O | 0.758 | 12.4
48 | C=C(CNCCO)[C@@H]1CC[C@]2(CO)CC[C@]3(C)[C@H](CC[C@@H]4[C@@]5(C)CCC(N)C(C)(C)[C@@H]5CC[C@]43C)[C@@H]12 (stereo partly specified) | 1.8 | 3.36
